Patent US20190231748A1, “COMPOSITION FOR VAGINA AND ANTIMICROBIAL AGENT COMBINATION FOR USE IN PREPARING COMPOSITION FOR VAGINA” (Shenzhen Eulikan Biotechnology Co., Ltd., priority 2016, published 2019)

How the values were obtained:
Assay type in all cases: cell-based
[1] = tested on: Lactococcus lactis; assay: Gram-stained smear of co-culture gel, Gram-positive cocci (G+c); details: for Smear G^+c: cultivated 32 hours
Source text: (§1) 2.1 Experimental strains: one Lactococcus lactis strain and one Lactobacillus jensenii strain, both were clinical isolates.
(§2) The pH value was adjusted to 5.0.
(§3) 2.4 Experimental procedure: the test gel tubes containing different concentrations of antimicrobial agents, as shown in Tables 1 to 6 were inoculated with 100 microliters of Lactobacillus lactis suspension and 100 microliters of Lactobacillus jensenii suspension at the same time. The turbidities of both suspensions were 0.5 MCF. Then the tubes were cultivated at 37° C. and under 5 percent CO2 for 32 hours. Then the changes of the pH values of gels were tested. The gels were smeared, Gram stained, and microscopically examined for the morphology and quantity of bacteria.

[2] = tested on: Lactobacillus jensenii; assay: Gram-stained smear of co-culture gel, Gram-positive rods (G+b); details: for Smear G^+b: cultivated 32 hours
Source text: as §1, §2, §3

[3] = tested on: three strains of Escherichia coli isolated from the vaginal secretion of patients with vaginitis; assay: Growth in enrichment broth (turbidity after 24 hours), clinical strains
Source text: (§4) a. Experimental strains, three strains of Escherichia coli and three strains of Staphylococcus aureus, which were all isolated from the vaginal secretion of patients with vaginitis.
(§5) b. Enrichment broth, which contained 1 percent of yeast extract powder, 9 percent of sucrose, 0.025 percent of manganese sulfate (MnSO4.4H2O), 0.058 percent of magnesium sulfate (MgSO4.7H2O), and 0.9 percent of lactic acid, the pH value of the broth was adjusted to 4.8, and the enrichment broth was sterilized for later use;
(§6) (2). Experimental groups: the requirements for aseptic operation technique were strictly followed to prepare the sterile test tubes:
(§7) a. sodium benzoate group: each test tube contained 5 milliliters of enrichment broth, and was added in 0.05 percent (weight/volume) sodium benzoate;
(§8) b. 2-phenylethanol group: each test tube contained 5 milliliters of enrichment broth, and was added in 0.05 percent (weight/volume) of 2-phenylethanol;
(§9) c. sodium propionate group: each test tube contained 5 milliliters of enrichment broth, and was added in 0.25 percent (weight/volume) of sodium propionate;
(§10) d. “a group of the combinations of sodium benzoate and sodium propionate”: each test tube contained 5 milliliters of enrichment broth, and was added in 0.05 percent (weight/volume) of sodium benzoate and 0.25 percent (weight/volume) of sodium propionate;
(§11) e. “a group of the combinations of sodium benzoate and 2-phenylethanol”: each test tube contained 5 milliliters of enrichment broth, and was added in 0.05 percent (weight/volume) of sodium benzoate and 0.05 percent (weight/volume) of 2-phenylethanol;
(§12) f. “a group of the combinations of sodium propionate and 2-phenylethanol”: each test tube contained 5 milliliters of enrichment broth, and was added in 0.25 percent (weight/volume) of sodium propionate and 0.05 percent (weight/volume) of 2-phenylethanol;
(§13) g. “a group of the combinations of sodium benzoate, sodium propionate and 2-phenylethanol”: each test tube contained 5 milliliters of enrichment broth, and was added in 0.05 percent (weight/volume) of sodium benzoate, 0.25 percent (weight/volume) of sodium propionate, and 0.05 percent (weight/volume) of 2-phenylethanol;
(§14) h. positive control: one tube that contained 5 milliliters of enrichment broth without adding in any of the 2-phenylethanol, sodium benzoate, and sodium propionate, but inoculated the suspension of Escherichia coli or Staphylococcus aureus.
(§15) i. negative control: one tube that contained 5 milliliters of enrichment broth without adding in any of the 2-phenylethanol, sodium benzoate, and sodium propionate, and not inoculated the suspension of Escherichia coli or Staphylococcus aureus.
(§16) The requirements for aseptic operation technique were strictly followed to prepare the bacterial suspensions. The colonies of Escherichia coli and Staphylococcus aureus were diluted with physiological saline respectively to prepare bacterial suspension. The turbidities of the Escherichia coli suspension and the Staphylococcus aureus suspension were adjusted to 0.5 MCF (about 10^8 CFU/ml) by a turbidimeter. 1 milliliter of the 0.5 MCF bacterial suspensions were added into 9 milliliters of the enrichment broth respectively, so each bacterial solution was diluted for ten times to contain 10^7 CFU/ml of bacterial organisms.
(§17) The requirements for aseptic operation technique were strictly followed to take 100 microliters of the prepared bacterial suspensions respectively, and to add the bacterial suspensions into the aforesaid test tubes from a to h as well as positive control tube. No bacterial suspension was added into the negative control tube i.
(§18) The above tubes were cultured in a biochemical incubator at 37° C. for 24 hours, then turbidity changes of the test tube solutions were observed and recorded.
(§19) Remark: “+” means the growth of bacteria; “−” means no growth of bacteria.

[4] = tested on: three strains of Staphylococcus aureus isolated from the vaginal secretion of patients with vaginitis; assay: as above
Source text: as §4, §5, §6, §7, §8, §9, §10, §11, §12, §13, §14, §15, §16, §17, §18, §19

[5] = 0.25 percent (weight/volume) in enrichment broth pH 4.8, 37° C. 24 hours
[6] = 0.05 percent (weight/volume) in enrichment broth pH 4.8, 37° C. 24 hours

Q: What does the source list for `CCC(=O)[O-].[Na+]` [sodium propionate]?
A: Smear G^+c ([1]; 0.1 % in test gel): G^+c+++; Smear G^+c ([1]; 0.2 % in test gel): G^+c+++; Smear G^+c ([1]; 0.3 % in test gel): G^+c+++; Smear G^+c ([1]; 0.4 % in test gel): G^+c+; inhibition effect on the growth of Lactococcus lactis ([1]; 0.4 to 0.6 percent): stronger inhibition effect; Smear G^+c ([1]; 0.5 % in test gel): G^+c+; Smear G^+b ([2]; 0.1 % in test gel): G^+b+; Smear G^+b ([2]; 0.2 % in test gel): G^+b+; Smear G^+b ([2]; 0.3 % in test gel): G^+b+; Smear G^+b ([2]; 0.4 % in test gel): G^+b++; inhibition effect on the growth of Lactobacillus ([2]; 0.4 to 0.6 percent): weaker inhibition effect; Smear G^+b ([2]; 0.5 % in test gel): G^+b++; Smear G^+b ([2]; 0.6 % in test gel): G^+b++; Smear G^+b ([2]; 0.7 % in test gel): G^+b+; could inhibit the growth of Escherichia coli (agent alone, words) [3, 5]: no one of the three antimicrobial agents; could inhibit the growth of Staphylococcus aureus (agent alone, words) [4, 5]: no one of the three antimicrobial agents

Q: `OCCc1ccccc1` [2-phenylethanol] was tested. Which “Smear G^+c” value ([1]; 0.15 % in test gel) did it give?
A: G^+c+++

Q: And the “Smear G^+c” value ([1]; 0.2 % in test gel)?
A: G^+c+++

Q: What about the “Smear G^+c” value ([1]; 0.25 % in test gel) of the same molecule?
A: G^+c+++

Q: What about the “Smear G^+c” value ([1]; 0.3 % in test gel) of the same molecule?
A: G^+c+++

Q: And the “Smear G^+c” value ([1]; 0.35 % in test gel)?
A: G^+c+~+

Q: And the “inhibition effect on the growth of Lactococcus lactis” value ([1]; 0.35 to 0.45 percent)?
A: stronger inhibition effect

Q: And the “Smear G^+c” value ([1]; 0.4 % in test gel)?
A: G^+c+

Q: And the “Smear G^+b” value ([2]; 0.15 % in test gel)?
A: G^+b+

Q: And the “Smear G^+b” value ([2]; 0.2 % in test gel)?
A: G^+b+

Q: What about the “Smear G^+b” value ([2]; 0.25 % in test gel) of the same molecule?
A: G^+b+

Q: What about the “Smear G^+b” value ([2]; 0.3 % in test gel) of the same molecule?
A: G^+b+

Q: What about the “Smear G^+b” value ([2]; 0.35 % in test gel) of the same molecule?
A: G^+b+++

Q: And the “inhibition effect on the growth of Lactobacillus” value ([2]; 0.35 to 0.45 percent)?
A: weaker inhibition effect

Q: What about the “Smear G^+b” value ([2]; 0.4 % in test gel) of the same molecule?
A: G^+b++

Q: What about the “Smear G^+b” value ([2]; 0.45 % in test gel) of the same molecule?
A: G^+b++

Q: And the “Smear G^+b” value ([2]; 0.5 % in test gel)?
A: G^+b+

Q: And the “could inhibit the growth of Escherichia coli (agent alone, words)” value [3, 6]?
A: no one of the three antimicrobial agents

Q: What about the “could inhibit the growth of Staphylococcus aureus (agent alone, words)” value [4, 6] of the same molecule?
A: no one of the three antimicrobial agents
